# Experiments:
# [1] = Simulated gastrointestinal digestion (SGF then SIF), HPLC retention of 3,6,7-trimethyllumazine; type: in vitro ADME; conditions: for remaining amount of 3,6,7-trimethyllumazine: pure compound
# Experimental: The simulated gastrointestinal digestion was carried out using a static model. The simulated gastric fluid (SGF) and the simulated intestinal fluid (SIF) were prepared in accordance with a global consensus protocol (Minekus et al 2014). The SGF has a pH 3 to mimic the fed-state of the stomach. When mixed with Manuka honey (or a honey solution), the final mixture contains 2000 U/mL of pepsin. The SIF has pH 7 to mimic the fed-state of the small intestine, containing 2 mg/mL of pancreatin (8×USP, or based on a protease activity of 200 U/mL) and 20 mM of porcine bile extract before use.
# In the simulated gastric digestion, 2 g of Manuka honey was incubated in 2 mL of SGF at 37° C. under 95 rpm shaking for a period of 2 h (triplicates). At selected time points (0, 30, 60 and 120 min), a predetermined volume (0.1 mL) of the mixture was withdrawn for 3,6,7-trimethyllumazine analysis. The solution for analysis was kept on ice with an addition of 0.1 mL SIF (pH 7) to stop pepsin activity. As a control group, a pure 3,6,7-trimethyllumazine solution was treated in the same way for comparative purposes.
# Following the 2 h gastric digestion, the resulting solution was mixed with SIF (pH 7) at a volume ratio of 1:1, to have a final mixture that contains 1 mg/mL of pancreatin and 10 mM of porcine bile extract. This mixture was incubated at 37° C. under 95 rpm shaking for 4 h (triplicates). At selected time points (0, 60, 120 and 240 min), a predetermined volume (0.1 mL) of the mixture was withdrawn for 3,6,7-trimethyllumazine concentration analysis. The pancreatin activity in the withdrawn solution was quenched by adding 5 mmol/L Pefabloc® (Egger et al 2019).
# The gastric and intestinal digesta for 3,6,7-trimethyllumazine analysis was treated to remove insoluble fractions (e.g. pancreatin) before HPLC analysis. In brief, all samples were diluted with 0.1% formic acid and then centrifuged at 14,000 rpm for 10 min. Supernatant was taken for analysis. The amount of 3,6,7-trimethyllumazine at different time points was analysed using a reverse-phase HPLC system, which has been previously used to analyse 3,6,7-trimethyllumazine and leptosperin as reported in the literature (Bin Lin et al 2017). In brief, the samples were diluted 5 times in 0.1% v/v formic acid. A Hypersil GOLD column (150×2.1 mm, […]) was used as the stationary phase (25° C.), and the mobile phase will consist of 0.1% formic acid (phase A), and 80:20 acetonitrile: 0.1% formic acid (phase B). […] The signal of 3,6,7-trimethyllumazine was detected at 320 nm.
# [2] = system: differentiated THP-1 cells; assay: WST-1 cell viability, differentiated THP-1 cells; type: cell-based; conditions: for cell death: human
# Experimental: To measure cytotoxicity of 3,6,7-trimethyllumazine at different doses, 2-(4-Iodophenyl)-3-(4-nitrophenyl)-5-(2,4-disulfophenyl)-2H-tetrazolium, monosodium salt (WST-1) (Roche, 11644807001, Lot #45255800) was used. WST-1 is a cell proliferation reagent for measurement of cellular proliferation, viability, and cytotoxicity using a colorimetric assay (Gosert (2011); Peskin (2000)).
# After incubation, a portion of the culture media was taken and stored for MMP-9 secretion testing using ELISA. The remaining media in the plates was then removed and 100 μl of WST-1 in RPMI-1640 media (1:10 dilution) was added to each cell well and incubated at 37° C. for a further 4 hours. The plates were then read using a plate reader at wavelength of 450 nm. Cytotoxicity was calculated as follows:
# [WST-1 score for each sample/WST-1 score for the control]×100
# A WST-1 score below 80% will be considered cytotoxic.
# [3] = system: COX-2 protein expression in THP-1 cells; assay: LPS-induced COX-2 protein expression in THP-1 cells (Western blot); type: cell-based, human; conditions: for COX-2 Relative expression (mean ± SEM): LPS 24 hours, LPS positive control 1.26 ± 0.11, n=6
# Experimental: THP-1 cells were seeded in 12-well tissue-culture treated plates at a density of 500,000 cells/well in growth media overnight. […] Cells were washed with cold PBS and lysed in RIPA buffer containing protease inhibitors (Sigma P2714) for 15 minutes on ice. Debris was pelleted by centrifugation at 14,000×g for 15 min and lysate supernatants were frozen at −80° C. for later analysis by western blot.
# Western blots for semi-quantitative COX-2 (Abcam ab188183) protein expression were conducted on THP-1 monocyte cells lysed with RIPA buffer containing protease inhibitors. A total of 10 μg protein was loaded onto precast 10% acrylamide gels (BioRad, NZ) then separated by electrophoresis at 120 V at room temperature. […] The membranes were then incubated with the primary antibody that correspond to the protein of interest for 1 h. […] Western blot images were captured with an Amersham™ Imager 600 (GE Healthcare, Chicago, Ill., USA) and densitometry measurement of protein bands was analysed with the accompanying image analysis software.
# For analysis of Western blots, densitometry measurements from the proteins of interest were normalised to the densitometry of p-actin for each sample. […] The significance level was set at p≤0.05.
compound,measurement,setting,value
"Cc1nc2[nH]c(=O)n(C)c(=O)c2nc1C [3,6,7-trimethyllumazine]",degradation during gastrointestinal digestion,[1]; 50% (w/w) Manuka honey solutions or pure compound directly exposed to digestive media,No significant degradation
same,initial amount recovered in the digesta,"[1]; from four Manuka honey samples, end of 2 h gastric plus 4 h intestinal digestion",~100%
same,"remaining amount of 3,6,7-trimethyllumazine","[1]; SGF, 0 h, mean ± SD, n=3",682 ± 90 ng/mL
same,"remaining amount of 3,6,7-trimethyllumazine","[1]; SGF, 0.5 h",703 ± 57 ng/mL
same,"remaining amount of 3,6,7-trimethyllumazine","[1]; SGF, 1 h",728 ± 28 ng/mL
same,"remaining amount of 3,6,7-trimethyllumazine","[1]; SGF, 2 h",688 ± 72 ng/mL
same,"remaining amount of 3,6,7-trimethyllumazine","[1]; SIF, 0 h",736 ± 6 ng/mL
same,"remaining amount of 3,6,7-trimethyllumazine","[1]; SIF, 1 h",740 ± 12 ng/mL
same,"remaining amount of 3,6,7-trimethyllumazine","[1]; SIF, 2 h",732 ± 10 ng/mL
same,"remaining amount of 3,6,7-trimethyllumazine","[1]; SIF, 4 h",730 ± 3 ng/mL
same,WST-1 score (cell viability),"[2]; 40 μg/mL, below 80% considered cytotoxic",79.8%
same,cell death,[2]; 30 μg/mL,13%
same,cell death,[2]; 40 μg/mL,20%
same,COX-2 Relative expression (mean ± SEM),[3]; 12.5 μg/mL,0.98 ± 0.05
same,COX-2 Relative expression (mean ± SEM),[3]; 25 μg/mL,0.99 ± 0.07
same,reduction in COX-2 protein compared to the LPS treatment,[3]; 50 ug/mL,significant reduction
same,COX-2 Relative expression (mean ± SEM),[3]; 50 μg/mL,0.90 ± 0.09
same,COX-2 Relative expression (mean ± SEM),[3]; 100 μg/mL,0.96 ± 0.13
same,reduction of COX-2 protein expression compared to LPS-stimulated cells,"[3]; all doses tested, 12.5-100 μg/mL",16-23%

# — patent US20230226065A1, “ANTI-INFLAMMATORY COMPOSITIONS, METHODS AND USES THEREOF” (COMVITA LIMITED, priority 2020, published 2023)
